34 compounds from patent US20100130737A1, “Regulating Agent of GPR34 Receptor Function” (TAKEDA PHARMACEUTICAL COMPANY LIMITED, priority 2005, published 2010) can be followed below.

Compound `O=C(Cc1ccc(OCc2cccc(C(=O)O)c2)cc1)NC1(C(=O)O)Cc2ccc(-c3ccc(Cl)cc3)cc2C1` (stereo not shown) [Example B188, 2-[({4-[(3-Carboxybenzyl)oxy]phenyl}acetyl)amino]-5-(4-chlorophenyl)indan-2-carboxylic acid] gave a melting point of 220 to 222 °C.
Under `CC(C)(C)OC(=O)c1ccccc1COc1ccc(CC(=O)NC2(C(=O)O)Cc3ccc(-c4ccc(Cl)cc4)cc3C2)cc1` (stereo not shown) [Example B189, 2-{[(4-{[2-(tert-Butoxycarbonyl)benzyl]oxy}phenyl)acetyl]amino}-5-(4-chlorophenyl)indan-2-carboxylic acid] stands 170 to 171 °C; under `O=C(Cc1ccc(OCc2ccccc2C(=O)O)cc1)NC1(C(=O)O)Cc2ccc(-c3ccc(Cl)cc3)cc2C1` (stereo not shown) [Example B190, 2-[({4-[(2-Carboxybenzyl)oxy]phenyl}acetyl)amino]-5-(4-chlorophenyl)indan-2-carboxylic acid], 209 to 211 °C.
Under `O=C(Cc1ccc(OCc2ccc(F)cc2)cc1)NC1(c2nn[nH]n2)Cc2ccc(-c3ccc(Cl)cc3)cc2C1` (stereo not shown) [Example B191, N-[5-(4-Chlorophenyl)-2-(2H-tetrazol-5-yl)-2,3-dihydro-1H-inden-2-yl]-2-{4-[(4-fluorobenzyl)oxy]phenyl}acetamide] stands 108 to 110 °C; under `Nc1cccc(COc2ccc(CC(=O)NC3(C(=O)O)Cc4ccc(-c5ccc(Cl)cc5)cc4C3)cc2)c1` (stereo not shown) [Example B192, 2-[({4-[(3-Aminobenzyl)oxy]phenyl}acetyl)amino]-5-(4-chlorophenyl)indan-2-carboxylic acid], 191 to 192 °C; under `CS(=O)(=O)Nc1cccc(COc2ccc(CC(=O)NC3(C(=O)O)Cc4ccc(-c5ccc(Cl)cc5)cc4C3)cc2)c1` (stereo not shown) [Example B193, 5-(4-Chlorophenyl)-2-({[4-({3-[(methylsulfonyl)amino]benzyl)oxy)phenyl]acetyl}amino)indan-2-carboxylic acid], 169 to 170 °C.
Under `Nc1ccccc1COc1ccc(CC(=O)NC2(C(=O)O)Cc3ccc(-c4ccc(Cl)cc4)cc3C2)cc1` (stereo not shown) [Example B194, 2-[({4-[(2-Aminobenzyl)oxy]phenyl}acetyl)amino]-5-(4-chlorophenyl)indan-2-carboxylic acid] stands 149 to 150 °C.
The compound `Cc1c(C(=O)NC2(C(=O)O)Cc3cccc(Br)c3C2)oc2cc(-c3ccc(Cl)cc3)ccc12` (stereo not shown) [Example C113, 4-Bromo-2-({[6-(4-chlorophenyl)-3-methyl-1-benzofuran-2-yl]carbonyl}amino)indan-2-carboxylic acid] registered a melting point of 230 °C.
The compound `Cc1c(C(=O)NC2(C(=O)O)Cc3ccc(Br)cc3C2)oc2cc(-c3ccc(Cl)cc3)ccc12` (stereo not shown) [Example C114, 5-Bromo-2-({[6-(4-chlorophenyl)-3-methyl-1-benzofuran-2-yl]carbonyl}amino)indan-2-carboxylic acid] had a melting point of 227 °C.
The compound `Cc1c(C(=O)N[C@H](Cc2ccc(OCc3ccccc3)cc2)C(=O)O)oc2cc(-c3ccc(Cl)cc3)ccc12` [Example C116, O-Benzyl-N-{[6-(4-chlorophenyl)-3-methyl-1-benzofuran-2-yl]carbonyl}-D-tyrosine] returned a melting point of 113 to 114 °C.
As to `Cc1c(C(=O)N[C@@H](Cc2ccc(OCc3ccsc3)cc2)C(=O)O)oc2cc(-c3ccc(Cl)cc3)ccc12` [Example C118, N-{[6-(4-Chlorophenyl)-3-methyl-1-benzofuran-2-yl]carbonyl}-O-(3-thienylmethyl)-L-tyrosine], the melting point was 111 to 113 °C.
The value for `Cc1c(C(=O)N[C@@H](Cc2ccc(OCc3ccoc3)cc2)C(=O)O)oc2cc(-c3ccc(Cl)cc3)ccc12` [Example C119, N-{[6-(4-Chlorophenyl)-3-methyl-1-benzofuran-2-yl]carbonyl}-O-(3-furylmethyl)-L-tyrosine] was 108 to 110 °C; that for `O=C(N[C@@H](Cc1ccc(OCc2ccoc2)cc1)C(=O)O)c1cc2ccc(-c3ccc(Cl)cc3)cc2s1` [Example C124, N-{[6-(4-Chlorophenyl)-1-benzothiophene-2-yl]carbonyl}-O-(3-furylmethyl) tyrosine] was 200 to 201 °C.
Under `O=C(N[C@@H](Cc1ccc(OCc2ccoc2)cc1)C(=O)O)c1cc2cc(-c3ccc(Cl)cc3)ccc2s1` [Example C125, N-{[5-(4-Chlorophenyl)-1-benzothiophene-2-yl]carbonyl}-O-(3-furylmethyl) tyrosine] stands 172 to 173 °C; under `O=C(N[C@@H](Cc1ccc(OCc2cccc(F)c2)cc1)C(=O)O)c1cc2cc(-c3ccc(Cl)cc3)ccc2s1` [Example C126, N-{[5-(4-Chlorophenyl)-1-benzothiophene-2-yl]carbonyl}-O-(3-fluorobenzyl) tyrosine], 184 to 185 °C; under `Cc1cccc(COc2ccc(C[C@H](NC(=O)c3cc4cc(-c5ccc(Cl)cc5)ccc4s3)C(=O)O)cc2)c1` [Example C127, N-{[5-(4-Chlorophenyl)-1-benzothiophene-2-yl]carbonyl}-O-(3-methylbenzyl)tyrosine], 192 to 193 °C.
Under `COc1cccc(COc2ccc(C[C@H](NC(=O)c3cc4cc(-c5ccc(Cl)cc5)ccc4s3)C(=O)O)cc2)c1` [Example C128, N-{[5-(4-Chlorophenyl)-1-benzothiophene-2-yl]carbonyl}-O-(3-methoxybenzyl)tyrosine] stands 175 to 177 °C; under `CC(C)Oc1ccc(-c2ccc3sc(C(=O)N[C@@H](Cc4ccc(OCc5ccc(F)cc5)cc4)C(=O)O)cc3c2)cc1` [Example C130, O-(4-Fluorobenzyl)-N-{[5-(4-isopropoxyphenyl)-1-benzothiophene-2-yl]carbonyl}tyrosine], 204 to 205 °C; under `Cc1ccc(COc2ccc(C[C@H](NC(=O)c3cc4cc(-c5ccc(Cl)cc5)ccc4s3)C(=O)O)cc2)cc1` [Example C134, N-{[5-(4-Chlorophenyl)-1-benzothiophene-2-yl]carbonyl}-O-(4-methylbenzyl)tyrosine], 208 °C.
Regarding `O=C(N[C@@H](Cc1ccc(OCc2ccc(Cl)cc2)cc1)C(=O)O)c1cc2cc(-c3ccc(Cl)cc3)ccc2s1` [Example C135, O-(4-Chlorobenzyl)-N-{[5-(4-chlorophenyl)-1-benzothiophene-2-yl]carbonyl}tyrosine], the melting point was 196 to 197 °C.
Under `N#Cc1ccc(COc2ccc(C[C@H](NC(=O)c3cc4cc(-c5ccc(Cl)cc5)ccc4s3)C(=O)O)cc2)cc1` [Example C136, N-{[5-(4-Chlorophenyl)-1-benzothiophene-2-yl]carbonyl)-O-(4-cyanobenzyl)tyrosine] stands 164 °C.
Under `CCc1ccc(COc2ccc(C[C@H](NC(=O)c3cc4cc(-c5ccc(Cl)cc5)ccc4s3)C(=O)O)cc2)cc1` [Example C137, N-{[5-(4-Chlorophenyl)-1-benzothiophene-2-yl]carbonyl}-O-(4-ethylbenzyl)tyrosine] stands 205 °C.
Take `O=C(N[C@@H](Cc1ccc(OCc2ccc(C(F)(F)F)cc2)cc1)C(=O)O)c1cc2cc(-c3ccc(Cl)cc3)ccc2s1` [Example C138, N-{[5-(4-Chlorophenyl)-1-benzothiophene-2-yl]carbonyl}-O-[4-(trifluoromethyl)benzyl]tyrosine]: the melting point came to 198 °C.
Under `Cc1ccc(COc2ccc(C[C@H](NC(=O)c3cc4cc(C#Cc5ccccc5)ccc4s3)C(=O)O)cc2)cc1` [Example C140, O-(4-Methylbenzyl)-N-{[5-(phenylethynyl)-1-benzothiophene-2-yl]carbonyl}tyrosine] stands 204 to 207 °C; under `O=C(NC(Cc1ccc(OCc2ccc(Cl)cc2)cc1)C(=O)O)c1cc2cc(C#Cc3ccccc3)ccc2s1` (stereo not shown) [Example C141, O-(4-Chlorolbenzyl)-N-{[5-(phenylethynyl)-1-benzothiophene-2-yl]carbonyl)tyrosine], 216 to 221 °C; under `Nc1c(C(=O)NC(Cc2ccc(OCc3ccccc3)cc2)C(=O)O)oc2ccc(-c3ccc(Cl)cc3)cc12` (stereo not shown) [Example C149], 250 °C.
The value for `Cc1c(C(=O)N[C@@H](Cc2ccc(OCc3ccoc3)cc2)C(=O)O)oc2ccc(-c3ccc(Cl)cc3)cc12` [Example C150, N-{[5-(4-Chlorophenyl)-3-methyl-1-benzofuran-2-yl]carbonyl}-O-(3-furylmethyl)tyrosine] was 196 to 197 °C; that for `O=C(N[C@@H](Cc1ccc(OCc2ccoc2)cc1)C(=O)O)c1cc2ccc(-c3ccc(Cl)cc3)cc2o1` [Example C151, N-{[6-(4-Chlorophenyl)-1-benzofuran-2-yl]carbonyl}-O-(3-furylmethyl)tyrosine] was 159 to 160 °C; that for `O=C(N[C@@H](Cc1ccc(OCc2ccoc2)cc1)C(=O)O)c1cc2cc(-c3ccc(Cl)cc3)ccc2o1` [Example C152, N-{[5-(4-Chlorophenyl)-1-benzofuran-2-yl]carbonyl}-O-(3-furylmethyl)tyrosine] was 211 to 212 °C.
Turning to `Cc1cccc(COc2ccc(C[C@H](NC(=O)c3cc4ccc(-c5ccc(Cl)cc5)cc4o3)C(=O)O)cc2)c1` [Example C154, N-{[6-(4-Chlorophenyl)-1-benzofuran-2-yl]carbonyl}-O-(3-methylbenzyl)tyrosine], the melting point was 157 to 158 °C.
Under `COc1cccc(COc2ccc(C[C@H](NC(=O)c3cc4ccc(-c5ccc(Cl)cc5)cc4o3)C(=O)O)cc2)c1` [Example C155, N-{[6-(4-Chlorophenyl)-1-benzofuran-2-yl]carbonyl}-O-(3-methoxybenzyl)tyrosine] stands 150 to 151 °C.
`Cc1c(C(=O)N[C@H](C(=O)O)c2ccc(OCc3ccccc3)cc2)oc2cc(-c3ccc(Cl)cc3)ccc12` [Example C156, (2S)-[4-(Benzyloxy)phenyl]({[6-(4-chlorophenyl)-3-methyl-1-benzofuran-2-yl]carbonyl}amino)acetic acid] had a melting point of 178 °C.
Turning to `Cc1ccc(COc2ccc(CC(NC(=O)c3cc4ccc(-c5ccc(Cl)cc5)cc4o3)C(=O)O)cc2)cc1` (stereo not shown) [Example C158], the melting point was 204 °C.
`O=C(N[C@@H](Cc1ccc(OCc2ccc(Cl)cc2)cc1)C(=O)O)c1cc2ccc(-c3ccc(Cl)cc3)cc2o1` [Example C159, O-(4-Chlorobenzyl)-N-{[6-(4-chlorophenyl)-1-benzofuran-2-yl]carbonyl}tyrosine] showed a melting point of 195 °C.

In general, melting point refers to the temperature of the solid-liquid transition.
